The values that follow come from patent US20260167623A1 (NIKANG THERAPEUTICS, INC., priority 2022, published 2026).

Experiment [1] deals with T1, CDK2 (Homo sapiens, UniProt P24941).
T1 construct: High-Throughput Measurement of Cellular Endogenous CDK2; endogenous in cells; host or cells: OVCAR3
The experiment can be described thus: High-throughput HTRF measurement of cellular endogenous CDK2 level (degradation, DC50/Dmax) in OVCAR3 cells, 6 h. As to conditions: 6 h compound treatment, HTRF total CDK2, read-out: DC50_OVCAR3_6h. The class given is cell-based. In a few lines:
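DC50 and Dmax were derived by four-parameter logistic fit of the […] TR-FRET ratio, scaled between DMSO (0% degradation) and lysis buffer (100%) controls. The ratio came from an HTRF total-CDK2 sandwich immunoassay on lysates of OVCAR3 cells given 0.03–1,000 nM compound for 6 hours.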
(In general: Time-resolved FRET reads energy transfer from a long-lived donor to a nearby acceptor.)

The target in experiment [2] is T1, CDK2. The experiment can be described thus: Inhibition of CDK2: phospho-Rb (S807/811) HTRF measurement in OVCAR3 cells, 24 h. The class given is cell-based. Particulars: 24 h compound treatment, read-out: pRB_OVCAR3_24h. The gist of the method:
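IC50 came from a four-parameter fit of DMSO-normalized TR-FRET ratios (665/620 nm) reporting phospho-Rb S807/811. Lysates were taken from OVCAR3 cultures treated 24 h with compound (0.3 to 10,000 nM) and incubated 4 h at room temperature with the antibody pair.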

Take `Cn1nc(N2CCC(=O)NC2=O)c2ccc(C3CCN(CC#Cc4cccc(S(=O)(=O)N5CCC(Nc6ncc(Cl)cn6)CC5)c4)CC3)cc21` [Example 226, 1-(6-(1-(3-(3-((4-((5-chloropyrimidin-2-yl)amino)piperidin-1-yl)sulfonyl)phenyl)prop-2-yn-1-yl)piperidin-4-yl)-1-methyl-1H-indazol-3-yl)dihydropyrimidine-2,4(1H,3H)-dione]: in experiment [1], the DC50 lay in the range of 10 to 100 nM. In experiment [2], the IC50 is 100 to 500 nM.
The like results for `Cn1nc(N2CCC(=O)NC2=O)c2ccc(C3CCN(CC4CCN(c5cccc(S(=O)(=O)N6CCC(Nc7ncc(Cl)cn7)CC6)c5)C(=O)C4)CC3)cc21` (centres unmarked) [Example 234, 1-(6-(1-((1-(3-((4-((5-chloropyrimidin-2-yl)amino)piperidin-1-yl)sulfonyl)phenyl)-2-oxopiperidin-4-yl)methyl)piperidin-4-yl)-1-methyl-1H-indazol-3-yl)dihydropyrimidine-2,4(1H,3H)-dione] were, in that order, 1 to 10 nM and 1 to 100 nM.
The like results for `Cn1nc(N2CCC(=O)NC2=O)c2ccc(C3CCC(CN4CCC(c5cccc(S(=O)(=O)N6CCC(Nc7ncc(C(F)(F)F)cn7)CC6)c5)CC4)CC3)cc21` (centres unmarked) [Example 238, 1-(1-methyl-6-(4-((4-(3-((4-((5-(trifluoromethyl)pyrimidin-2-yl)amino)piperidin-1-yl)sulfonyl)phenyl)piperidin-1-yl)methyl)cyclohexyl)-1H-indazol-3-yl)dihydropyrimidine-2,4(1H,3H)-dione] were, in that order, 10 to 100 nM and 1 to 100 nM.
The like results for `Cn1nc(N2CCC(=S)NC2=O)c2ccc(C3CCN(CC4CCN(c5cccc(S(=O)(=O)N6CCC(Nc7ncc(Cl)cn7)CC6)c5)CC4)CC3)cc21` [Example 239, 1-(6-(1-((1-(3-((4-((5-chloropyrimidin-2-yl)amino)piperidin-1-yl)sulfonyl)phenyl)piperidin-4-yl)methyl)piperidin-4-yl)-1-methyl-1H-indazol-3-yl)-4-thioxotetrahydropyrimidin-2(1H)-one] were, in that order, 10 to 100 nM and 100 to 500 nM.
Regarding `Cn1nc(N2CCC(=O)NC2=O)c2ccc(C3CCN(Cc4ccc(S(=O)(=O)N5CCC(Nc6ncc(OC(F)F)cn6)CC5)cc4)CC3)cc21` [Example 241, 1-(6-(1-(4-((4-((5-(difluoromethoxy)pyrimidin-2-yl)amino)piperidin-1-yl)sulfonyl)benzyl)piperidin-4-yl)-1-methyl-1H-indazol-3-yl)dihydropyrimidine-2,4(1H,3H)-dione], the DC50 in experiment [1] lay in the range of 1 to 10 nM. Further, in experiment [2], the IC50 lay within 1 to 100 nM.
The like results for `CC(C)c1cnc(NC2CCN(S(=O)(=O)c3cccc(N4CCC(CN5CCC(c6ccc7c(N8CCC(=O)NC8=O)nn(C)c7c6)CC5)CC4)c3)CC2)nc1` [Example 244, 1-(6-(1-((1-(3-((4-((5-isopropylpyrimidin-2-yl)amino)piperidin-1-yl)sulfonyl)phenyl)piperidin-4-yl)methyl)piperidin-4-yl)-1-methyl-1H-indazol-3-yl)dihydropyrimidine-2,4(1H,3H)-dione] were, in that order, 1 to 10 nM and 1 to 100 nM.
The like results for `O=C1CCC(N2Cc3cc(N4CCC(CN5CCN(c6cccc(S(=O)(=O)N7CCC(Nc8ncc(Cl)cn8)CC7)c6)CC5)CC4)ccc3C2=O)C(=O)N1` (centres unmarked) [Example 247, 3-(5-(4-((4-(3-((4-((5-chloropyrimidin-2-yl)amino)piperidin-1-yl)sulfonyl)phenyl)piperazin-1-yl)methyl)piperidin-1-yl)-1-oxoisoindolin-2-yl)piperidine-2,6-dione] were, in that order, 10 to 100 nM and 1 to 100 nM.
The like results for `O=C1CCC(N2Cc3cc(N4CCC(CN5CCN(c6cccc(S(=O)(=O)N7CCC(Nc8ncc(C(F)(F)F)cn8)CC7)c6)CC5)CC4)ccc3C2=O)C(=O)N1` (centres unmarked) [Example 248, 3-(1-oxo-5-(4-((4-(3-((4-((5-(trifluoromethyl)pyrimidin-2-yl)amino)piperidin-1-yl)sulfonyl)phenyl)piperazin-1-yl)methyl)piperidin-1-yl)isoindolin-2-yl)piperidine-2,6-dione] were, in that order, 1000 to 5000 nM and 1 to 100 nM.
Take `O=C1CCC(c2csc3cc(C4CCN(CC5CCN(c6cccc(S(=O)(=O)N7CCC(Nc8ncc(C(F)(F)F)cn8)CC7)c6)CC5)CC4)ccc23)C(=O)N1` (centres unmarked) [Example 250, 3-(6-(1-((1-(3-((4-((5-(trifluoromethyl)pyrimidin-2-yl)amino)piperidin-1-yl)sulfonyl)phenyl)piperidin-4-yl)methyl)piperidin-4-yl)benzo[b]thiophen-3-yl)piperidine-2,6-dione]: the DC50 in experiment [1] lay within 10 to 100 nM. Besides, the IC50 in experiment [2] lay within 1 to 100 nM.
The like results for `Cn1cc(C2CCC(=O)NC2=O)c2ccc(C3CCN(CC4CCN(c5cccc(S(=O)(=O)N6CCC(Nc7ncc(C(F)(F)F)cn7)CC6)c5)CC4)CC3)cc21` (centres unmarked) [Example 251, 3-(1-methyl-6-(1-((1-(3-((4-((5-(trifluoromethyl)pyrimidin-2-yl)amino)piperidin-1-yl)sulfonyl)phenyl)piperidin-4-yl)methyl)piperidin-4-yl)-1H-indol-3-yl)piperidine-2,6-dione] were, in that order, 10 to 100 nM and 1 to 100 nM.
